# Results as given in ChEMBL document CHEMBL1255344, “Buthionine sulfoximine has anti-Trypanosoma cruzi activity in a murine model of acute Chagas' disease and enhances the efficacy of nifurtimox” (Antimicrob Agents Chemother, 2008).
# Activity calls are given as the source filed them. The rule behind the calls is not given here.
# Experiments:
# [1] = system: Trypanosoma cruzi; test: Antitrypanosomal activity against Trypanosoma cruzi clone Dm28c metacyclic trypomastigotes infected in BALB/c mouse assessed as increase in survival rate at 220 mg/kg/day, ip measured after 20 days (reference value: 25%); assay type: functional
# [2] = system: Trypanosoma cruzi; test: Antitrypanosomal activity against Trypanosoma cruzi clone Dm28c metacyclic trypomastigotes infected in mouse assessed as decrease in heart parasite burden at 220 mg/kg/day, ip measured after 20 days; assay type: functional, organism-based
# [3] = system: Trypanosoma cruzi; test: Antitrypanosomal activity against Trypanosoma cruzi clone Dm28c metacyclic trypomastigotes infected in mouse assessed as decrease in heart parasite burden at 30 mg/kg/day, ip measured after 20 days; assay type: functional, organism-based
# [4] = system: Trypanosoma cruzi; test: Antitrypanosomal activity against Trypanosoma cruzi clone Dm28c metacyclic trypomastigotes infected in mouse assessed as decrease in heart parasitemia at 220 mg/kg/day, ip measured after 20 days; assay type: functional, organism-based
# [5] = system: Trypanosoma cruzi; test: Antitrypanosomal activity against Trypanosoma cruzi clone Dm28c metacyclic trypomastigotes infected in mouse assessed as decrease in heart parasitemia at 30 mg/kg/day, ip measured after 20 days; assay type: functional, organism-based
# [6] = system: Trypanosoma cruzi; test: Antitrypanosomal activity against Trypanosoma cruzi clone Dm28c metacyclic trypomastigotes infected in BALB/c mouse assessed as increase in survival rate at 2.5 mg/kg/day, ip measured after 20 days; assay type: functional, organism-based
# [7] = system: Trypanosoma cruzi; test: Antitrypanosomal activity against Trypanosoma cruzi clone Dm28c metacyclic trypomastigotes infected in BALB/c mouse assessed as increase in survival rate at 10 mg/kg/day, ip measured after 20 days; assay type: functional; settings: 480 h, route intraperitoneal
# [8] = system: Mus musculus; test: Toxicity in BALB/c mouse at 220 mg/kg/day, ip measured after 20 days; assay type: organism-based; design: route intraperitoneal; settings: in vivo, 480 h
# [9] = system: Trypanosoma cruzi; test: Antitrypanosomal activity against Trypanosoma cruzi clone Dm28c metacyclic trypomastigotes infected in BALB/c mouse assessed as increase in survival rate at 30 mg/kg/day, ip measured after 20 days; assay type: functional, organism-based
structure (smiles),measurement,setting,value
CCCCS(=N)(=O)CCC(N)C(=O)O (stereo not given) [BUTHIONINE SULFOXIMINE],Activity,[1],Active
same,survival at 220 mg/kg/day,"[1]; 480 h, route intraperitoneal",≤ 80%
same,Activity,[2],Active
same,Activity,[3],inactive
same,Activity,[4],Active
same,Activity,[5],inactive
same,Activity,[6],inactive
same,survival at 10 mg/kg/day,[7],≤ 100%
same,Activity,[8],Non-toxic
same,Activity,[9],inactive
